Test results published in paper PMC11130653, “Development of a rapid HPLC-fluorescence method for monitoring warfarin metabolites formation: In vitro studies for evaluating the effect of piperine on warfarin metabolism and plasma coagulation” (Heliyon, 2024).

Target: T1, CYP2C9 (Homo sapiens, UniProt P11712)
T1 construct: human liver microsomes
Experiment: inhibition of S-warfarin 7-hydroxylation (CYP2C9 marker) in human liver microsomes, HPLC-FLD
Format: biochemical

T1 sequence (P11712 whole entry): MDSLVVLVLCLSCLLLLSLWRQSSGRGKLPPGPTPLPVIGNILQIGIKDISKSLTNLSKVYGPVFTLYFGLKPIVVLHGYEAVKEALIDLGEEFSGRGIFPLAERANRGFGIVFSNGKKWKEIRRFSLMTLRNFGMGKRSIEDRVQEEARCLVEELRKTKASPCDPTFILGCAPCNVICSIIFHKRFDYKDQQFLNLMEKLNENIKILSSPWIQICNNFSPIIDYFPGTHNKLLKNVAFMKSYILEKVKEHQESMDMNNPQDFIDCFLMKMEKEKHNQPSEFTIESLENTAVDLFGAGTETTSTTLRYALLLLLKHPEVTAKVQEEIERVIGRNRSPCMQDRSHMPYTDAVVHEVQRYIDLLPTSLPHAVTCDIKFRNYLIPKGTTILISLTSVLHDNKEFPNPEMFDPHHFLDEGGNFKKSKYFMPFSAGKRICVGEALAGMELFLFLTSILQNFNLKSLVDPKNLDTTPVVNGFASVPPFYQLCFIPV

Work on O=C(/C=C/C=C/c1ccc2c(c1)OCO2)N1CCCCC1 [piperine] yielded an IC50 of 14.2 ± 1.1 µM.
